# Measurements reported in PubChem BioAssay (NCI).
#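 Cells were grown in 96-well plates and exposed to each compound for 48 hours at five concentrations; endpoints were interpolated linearly between bracketing concentrations, or set to the highest concentration if not reached. The concentration for 50% growth inhibition is given as GI50. TGI marks complete inhibition of growth.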 Where a SMILES comes first, the peptide text is derived from it.
# How the values were obtained:
# Assay in all cases: NCI anticancer screen, dose series, 48 h
# [1] = test system: IGROV1 ovarian
# [2] = test system: T-47D breast
# [3] = test system: SNB-19 CNS
# [4] = test system: TK-10 renal
# [5] = test system: SK-MEL-28 melanoma
# [6] = test system: RPMI-8226 leukemia
# [7] = test system: HS 578T breast
# [8] = test system: M14 melanoma
# [9] = test system: UO-31 renal
# [10] = test system: ACHN renal
# [11] = test system: MDA-MB-435
# [12] = test system: SN12C renal
# [13] = test system: HCC-2998 colon
# [14] = test system: HOP-92 NSCLC
# [15] = test system: RXF 393 renal
SMILES,TGI [1] [µM],TGI [2] [µM],TGI [3] [µM],TGI [4] [µM],TGI [5] [µM],TGI [6] [µM],TGI [7] [µM],TGI [8] [µM],TGI [9] [µM],TGI [10] [µM],TGI [11] [µM],TGI [12] [µM],TGI [13] [µM],TGI [14] [µM],TGI [15] [µM],GI50 [2] [µM],GI50 [6] [µM]
Cc1cccc2c1[C@]13OC(C)[C@]4(C)CC5OC(=O)[C@@]1(C)[C@@H]5[C@]34C(=O)O2 (stereo not given in full),> 100,> 100,> 100,> 100,> 100,> 100,> 100,> 100,> 100,> 100,> 100,> 100,> 100,–,–,–,–
O=c1cc(-c2ccccc2)[nH]c2cc3c(cc12)OCO3,> 100,> 100,> 100,> 94,> 100,> 80,> 100,> 80.2,> 100,> 100,–,> 100,55.6,> 56.5,17.2,–,–
CCC(C)C(NC(=O)C(CCCCN)NC(=O)C(NC(=O)C(CCC(N)=O)NC(=O)C(N)CCCNC(=N)N)C(C)CC)C(=O)NC(Cc1c[nH]c2ccccc12)C(=O)NC(Cc1ccccc1)C(=O)NC(CCC(N)=O)C(=O)NC(CC(N)=O)C(=O)NC(CCCNC(=N)N)C(=O)NC(CCCNC(=N)N)C(=O)NC(CCSC)C(=O)NC(CCCCN)C(=O)NC(Cc1c[nH]c2ccccc12)C(=O)NC(CCCCN)C(=O)NC(CCCCN)C(=O)N1CCCC1C(=O)NC(C)C(=O)NC(CCCCN)C(=O)NC(CCCNC(=N)N)C(=O)NC(CCCCN)C(=O)NC(CC(C)C)C(=O)NC(Cc1ccccc1)C(=O)NCC(=O)O (stereo not given) (H-RQIKIWFQNRRMKWKKPAKRKLFG-OH; configuration not given here),> 25,–,> 25,> 25,> 25,15.1,> 25,> 25,> 25,> 25,> 25,> 25,> 25,> 25,> 25,–,–
c1cc(-c2ncc(-c3ccc4c(c3)CCCO4)o2)ccn1,> 100,63.7,> 100,89.8,> 100,30.4,> 100,94.5,> 100,> 100,15.3,> 100,–,92.5,> 100,–,–
CC(=O)Oc1ccccc1-c1cc2ccccc2oc1=O,–,> 100,> 100,–,> 100,> 100,> 100,> 100,> 100,> 100,> 100,> 100,> 100,–,–,–,–
CC1=NC(=Cc2ccc(O)cc2)C(=O)N1n1c(-c2ccccc2)nc2ccccc2c1=O,> 100,> 100,> 100,> 100,> 100,> 100,> 100,> 100,> 100,> 100,> 100,> 100,> 100,–,–,–,–
CSC1=C(SC)SC(=C2SC3=C(SC(=C4SCCS4)S3)S2)S1,> 100,> 100,> 100,> 100,> 100,> 100,> 100,> 100,> 100,> 100,> 100,> 100,> 100,> 100,–,–,–
COC1=C(Br)[C@H](O)[C@@]2(C=C1Br)CC(C(=O)NCCCCCN=C(N)N)=NO2,> 10,> 10,> 10,> 10,> 10,> 10,> 10,> 10,> 10,> 10,> 10,> 10,> 10,–,> 10,–,–
NS(=O)(=O)c1ccc(-n2c(-c3cccs3)nc3ccc(I)cc3c2=O)cc1,56,43.5,70.6,50.8,55.5,62.1,–,56,42.6,53.8,42.4,98.9,39.9,54.1,88.9,19.2,25.3
O=C1c2cc3c(cc2CC12Cc1cc4c(cc1C2=O)CCC4)CCCC3 (stereo not given),> 100,> 100,> 100,> 100,> 100,> 100,> 100,> 100,> 100,> 100,> 100,–,> 100,> 100,> 100,–,–
Cn1ccc(C(=O)NCCOCCNC(=O)c2ccn(C)c(=O)c2O)c(O)c1=O,–,> 100,> 100,> 100,> 100,> 100,> 100,–,> 100,> 100,> 100,> 100,> 100,> 100,–,–,–
CCC1OC2C(CC=C(C)C)=C3OC(C)(O)C(C)(CC)C(OC(=O)c4ccccc4)C3=C3OC(=O)C=C1C32 (stereo not given),> 100,> 100,94.6,> 100,> 100,> 100,> 100,> 100,> 100,> 100,> 100,79,48.4,> 100,–,–,–
NC(CCC(=O)NC(CSC(=O)N(O)c1ccc(Br)cc1)C(=O)NCC(=O)O)C(=O)O (stereo not given),> 100,–,> 100,> 100,> 100,> 100,> 50,> 100,> 100,> 100,> 50,> 100,> 100,> 100,> 100,–,–
CCN(CC)/C(Cl)=C(Cl)\C(=C1\Nc2ccc(OC)cc21)[N+](=O)[O-],> 100,> 100,> 100,> 100,> 100,–,> 100,> 100,> 100,> 100,> 100,> 100,> 100,> 100,72.9,–,–
Cc1cc(C)cc(C(=N)c2ccccc2Cc2cccc3ccccc23)c1,34.9,46.3,43,94.6,34.7,67,21.7,40.1,> 100,31.2,32.9,34.8,–,29,31.9,–,–
